Source: patent US20170260185A1 (priority 2014, published 2017)
Like-named read-outs stand apart in the source and are kept apart here.

Columns and labels:
[1] = biological target: T1, human serotonin transporter (SERT) (Homo sapiens, UniProt P31645); assay: Scintillation Proximity Assay (SPA) competition binding, [3H]citalopram, hSERT-CHO membranes
T1 construct: expressed in transfected cells; host or cells: CHO (hSERT-CHO), membrane preparation

[2] = biological target: T2, human dopamine transporter (DAT) (Homo sapiens, UniProt Q01959); assay: Scintillation Proximity Assay (SPA) competition binding, [3H]WIN-35,428, hDAT-CHO membranes
T2 construct: expressed in transfected cells; host or cells: CHO (hDAT-CHO), membrane preparation
T2 sequence (Q01959 whole entry): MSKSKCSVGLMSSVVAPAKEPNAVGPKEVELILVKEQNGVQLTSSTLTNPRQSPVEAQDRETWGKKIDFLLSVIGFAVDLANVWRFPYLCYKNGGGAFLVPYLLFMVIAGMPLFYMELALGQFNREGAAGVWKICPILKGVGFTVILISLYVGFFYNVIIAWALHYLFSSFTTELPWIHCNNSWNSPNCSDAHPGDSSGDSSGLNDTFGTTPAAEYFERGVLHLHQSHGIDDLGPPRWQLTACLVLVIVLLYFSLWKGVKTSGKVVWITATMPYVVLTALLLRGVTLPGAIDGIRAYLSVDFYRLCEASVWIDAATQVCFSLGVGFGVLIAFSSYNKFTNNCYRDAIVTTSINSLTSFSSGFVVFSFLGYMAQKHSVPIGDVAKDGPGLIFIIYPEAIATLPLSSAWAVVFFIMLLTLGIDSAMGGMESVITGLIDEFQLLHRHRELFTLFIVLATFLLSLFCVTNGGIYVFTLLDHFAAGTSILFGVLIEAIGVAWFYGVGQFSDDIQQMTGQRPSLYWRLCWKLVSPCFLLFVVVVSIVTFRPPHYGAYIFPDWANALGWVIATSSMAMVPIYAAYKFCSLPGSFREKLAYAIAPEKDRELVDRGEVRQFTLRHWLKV

[3] = biological target: human ERG potassium channel (hERG) (Homo sapiens, UniProt Q12809); assay: cell-based
Chain of human ERG potassium channel (hERG) (Q12809 whole entry): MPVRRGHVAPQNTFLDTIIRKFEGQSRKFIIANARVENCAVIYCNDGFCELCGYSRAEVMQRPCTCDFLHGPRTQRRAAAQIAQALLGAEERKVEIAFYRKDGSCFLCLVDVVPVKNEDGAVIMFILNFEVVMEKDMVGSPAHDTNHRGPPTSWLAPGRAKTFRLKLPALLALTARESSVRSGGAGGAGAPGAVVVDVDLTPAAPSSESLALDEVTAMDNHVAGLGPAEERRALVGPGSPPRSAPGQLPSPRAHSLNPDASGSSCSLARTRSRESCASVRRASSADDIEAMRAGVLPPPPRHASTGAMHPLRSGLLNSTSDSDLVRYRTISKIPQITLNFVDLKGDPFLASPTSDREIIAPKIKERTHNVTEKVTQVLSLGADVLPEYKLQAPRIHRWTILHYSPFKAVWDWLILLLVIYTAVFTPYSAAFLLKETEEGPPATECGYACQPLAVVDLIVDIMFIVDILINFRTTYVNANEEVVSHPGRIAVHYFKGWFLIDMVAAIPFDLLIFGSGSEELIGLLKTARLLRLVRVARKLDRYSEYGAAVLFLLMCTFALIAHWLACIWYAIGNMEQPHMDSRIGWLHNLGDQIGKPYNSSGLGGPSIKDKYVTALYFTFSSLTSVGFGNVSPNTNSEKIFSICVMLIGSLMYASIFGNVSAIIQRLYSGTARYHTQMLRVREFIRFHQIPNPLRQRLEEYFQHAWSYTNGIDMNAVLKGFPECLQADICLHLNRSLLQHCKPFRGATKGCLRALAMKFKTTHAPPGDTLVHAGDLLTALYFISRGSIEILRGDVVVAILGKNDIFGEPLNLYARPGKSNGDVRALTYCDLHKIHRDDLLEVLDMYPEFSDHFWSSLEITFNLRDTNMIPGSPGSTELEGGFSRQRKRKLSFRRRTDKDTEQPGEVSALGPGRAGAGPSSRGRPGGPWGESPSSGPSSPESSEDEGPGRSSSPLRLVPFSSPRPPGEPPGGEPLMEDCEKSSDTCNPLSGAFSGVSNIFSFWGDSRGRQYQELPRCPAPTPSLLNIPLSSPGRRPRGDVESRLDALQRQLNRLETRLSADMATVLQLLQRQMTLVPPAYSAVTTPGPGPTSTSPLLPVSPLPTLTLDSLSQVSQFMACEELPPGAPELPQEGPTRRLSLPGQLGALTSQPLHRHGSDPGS
Protocol: Measure of the Effect on hERG Channel by Tail Current Recording Using In Vitro Rapid ICE™
The potency of the compounds of the invention in inhibiting human ERG potassium channel (hERG) tail current is assessed in a recombinant HEK293 cell line stably transfected with hERG cDNA using Rapid ICE™ (Rapid Ion Channel Electrophysiology) assay. Rapid ICE™ is an automated patch-clamp assay utilizing the PatchXpress 7000A system (Molecular Devices Corporation) or the QPatch HTX system (Sophion Bioscience A/S).
Briefly cells are cultivated for 24 to 72 hours before recordings in minimum essential medium supplemented with 10% FBS, 1% non-essential amino acids, 1% sodium pyruvate, 2 mM L-glutamine. The day of the experiment cells are detached with TrypLE and prepared to be loaded on the instrument. For PatchXpress cells are finally resuspended in 150 μl of Extracellular Buffer whereas for QPatch cells are resuspended in 7 ml Serum-Free Media containing 25 mM Hepes and Soybean trypsin inhibitor and immediately placed in the cell storage tank of the machine. The composition of the Extracellular Buffer is (mM): NaCl 137; KCl 4; CaCl2 1.8; MgCl2 1.0; D-glucose 10; N 2 hydroxyethylpiperazine-N′-2-ethanesulfonic acid (HEPES) 10; pH 7.4 with 1 M NaOH. The composition of the pipette solution is (mM): KCl 130; MgCl2 1.0; Ethylene glycol-bis(R-aminoethyl ether)-N,N,N′,N′-tetraacetic acid (EGTA) 5; MgATP 5; HEPES 10; pH 7.2 with 1 M KOH. The voltage protocol includes the following steps: step from −80 mV to −50 mV for 200 ms, +20 mV for 4.8 s, step to −50 mV for 5 s then step to the holding potential of −80 mV. Compounds of the invention are dissolved in DMSO and diluted in Extracellular Buffer to achieve final test concentrations (0.1, 1 and 10 μM) in 0.1% DMSO. The voltage protocol is run and recorded continuously during the experiment. The vehicle, corresponding to 0.1% DMSO in Extracellular Buffer, is then applied for 3 min followed by the test substance in triplicate. The standard combined exposure time is 5 min. The average of tail current amplitude values recorded from 4 sequential voltage pulses is used to calculate for each cell the effect of the test substance by calculating the residual current (% control) compared with vehicle pre-treatment. Data are reported as % inhibition for each concentration tested and IC50 values are estimated using DataXpress or QPatch software. At least two cells are tested, more if results diverge.

[4] = biological target: T3, human norepinephrine transporter (NET) (Homo sapiens, UniProt P23975); assay: Scintillation Proximity Assay (SPA) competition binding, [3H]nisoxetine, hNET-CHO membranes
T3 construct: expressed in transfected cells; host or cells: CHO (hNET-CHO), membrane preparation
T3 sequence (P23975 whole entry): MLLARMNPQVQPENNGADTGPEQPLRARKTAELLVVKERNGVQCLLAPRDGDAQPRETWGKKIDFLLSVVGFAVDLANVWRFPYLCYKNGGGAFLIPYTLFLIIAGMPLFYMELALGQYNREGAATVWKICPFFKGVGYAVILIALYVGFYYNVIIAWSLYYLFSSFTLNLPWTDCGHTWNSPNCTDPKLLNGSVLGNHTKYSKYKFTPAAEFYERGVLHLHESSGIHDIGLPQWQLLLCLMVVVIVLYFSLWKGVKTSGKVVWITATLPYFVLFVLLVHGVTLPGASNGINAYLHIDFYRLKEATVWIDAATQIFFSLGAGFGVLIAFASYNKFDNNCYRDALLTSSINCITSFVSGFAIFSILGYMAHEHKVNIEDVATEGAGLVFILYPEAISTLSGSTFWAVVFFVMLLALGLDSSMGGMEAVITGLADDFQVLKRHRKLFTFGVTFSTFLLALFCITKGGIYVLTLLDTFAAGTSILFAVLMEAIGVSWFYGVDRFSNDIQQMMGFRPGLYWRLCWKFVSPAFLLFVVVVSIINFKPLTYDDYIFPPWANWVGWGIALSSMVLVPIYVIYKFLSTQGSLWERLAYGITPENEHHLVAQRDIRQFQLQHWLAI

[5] = read-out: pIC50 DAT (converted)

T1 sequence (P31645 whole entry): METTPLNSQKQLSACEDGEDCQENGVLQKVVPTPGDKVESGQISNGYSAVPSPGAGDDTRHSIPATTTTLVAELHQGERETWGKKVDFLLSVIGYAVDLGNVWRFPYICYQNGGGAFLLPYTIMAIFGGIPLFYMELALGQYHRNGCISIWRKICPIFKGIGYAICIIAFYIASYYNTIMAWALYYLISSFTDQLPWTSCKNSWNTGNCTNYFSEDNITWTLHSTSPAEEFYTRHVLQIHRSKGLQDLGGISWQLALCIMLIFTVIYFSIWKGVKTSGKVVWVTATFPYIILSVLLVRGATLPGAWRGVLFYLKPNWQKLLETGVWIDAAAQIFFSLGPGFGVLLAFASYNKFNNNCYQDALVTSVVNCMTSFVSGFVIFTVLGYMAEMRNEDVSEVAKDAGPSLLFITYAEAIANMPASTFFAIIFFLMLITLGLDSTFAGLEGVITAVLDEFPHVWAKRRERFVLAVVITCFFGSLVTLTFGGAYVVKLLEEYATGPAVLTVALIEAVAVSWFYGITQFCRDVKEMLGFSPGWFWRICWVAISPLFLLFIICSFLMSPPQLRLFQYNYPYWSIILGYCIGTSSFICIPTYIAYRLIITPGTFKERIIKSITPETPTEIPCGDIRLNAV

Structure (SMILES)	IC50 [1] [µM]	IC50 ([2]; pIC50 DAT) [µM]	IC50 [3] [µM]	IC50 [4] [µM]	IC50 [2, 5] [µM]
OC1CCNCC12CCN(C(c1ccc(F)cc1)c1ccc(F)cc1)C2 (centres unmarked) [Example 3, 2-[bis(4-fluorophenyl)methyl]-2,7-diazaspiro[4.5]decan-10-ol]	12.9	0.0708	2.51	4.47	–
CN1CCC(O)C2(CCN(C(c3ccc(F)cc3)c3ccc(F)cc3)C2)C1 (centres unmarked) [Example 4, 2-[bis(4-fluorophenyl)methyl]-7-methyl-2,7-diazaspiro[4.5]decan-10-ol]	18.6	–	1.58	18.2	0.195
Fc1ccc(C(c2ccc(F)cc2)N2CCC3(CCNCC3)C2)cc1 [Example 27, 2-[bis(4-fluorophenyl)methyl]-2,8-diazaspiro[4.5]decane]	3.47	–	2.51	1.7	0.148
Fc1ccc(C(c2ccc(F)cc2)N2CCC3(CNCCO3)C2)cc1 (centres unmarked) [Example 29, 2-[bis(4-fluorophenyl)methyl]-6-oxa-2,9-diazaspiro[4.5]decane]	6.92	–	6.31	1.38	0.107
Fc1ccc(C(c2ccc(F)cc2)N2CCC3(CC2)CNCCO3)cc1 [Example 31, 9-[bis(4-fluorophenyl)methyl]-1-oxa-4,9-diazaspiro[5.5]undecane]	2.63	0.0468	3.16	2.04	–
